Patent publication US11440908B2, “Crystalline forms of dasatinib” (Johnson Matthey Public Limited Company, priority 2018, dated 2022)

How the values were obtained:
Type in all cases: physicochemical
[1] = Retention of solid form after drying under vacuum; details: dried under vacuum at about 45° C. overnight (about 18-20 h)
Experimental: (§1) About 120 mg of dasatinib is dispensed in about 1 mL of ethyl formate and stirred at temperatures of about 15° C. or about 45° C. for about 24 h. The slurries that are obtained at either of two temperatures are filtered, to yield Form I of ethyl formate solvate of dasatinib.

[2] = Retention of solid form under high humidity conditions; details: about ≥95% relative humidity (RH) overnight (about 18-20 h), dried material
Experimental: as §1

[3] = Moisture uptake on exposure to 0-95% RH; details: exposed to 0-95% RH
[4] = Storage stability at controlled temperature/relative humidity

solid form after drying under vacuum [1]: retains its form
solid form after exposure to high humidity [2]: retains its form
moisture uptake [3]: < 1%
stability on storage ([4]; 25° C./97% RH): stable up to 5 months
stability on storage ([4]; 40° C./75% RH): stable up to 5 months
SMILES: Cc1nc(Nc2ncc(C(=O)Nc3c(C)cccc3Cl)s2)cc(N2CCN(CCO)CC2)n1 [dasatinib]
